Experimental data taken from patent US20190224214A1, “HUMAN GHRELIN O-ACYLTRANSFERASE INHIBITORS” (SYRACUSE UNIVERSITY, priority 2016, published 2019).
Read-outs that look alike come from different tables or passages of the source.

Assays:
hGOAT [1] = molecular target: T1, hGOAT (Homo sapiens, UniProt Q96T53); assay: fluorescence-based in vitro hGOAT activity assay (ghrelin octanoylation, HPLC readout); format: biochemical
T1 construct: made in house; host or cells: Sf9 insect cells (membrane fraction)
T1 sequence (Q96T53 1-435): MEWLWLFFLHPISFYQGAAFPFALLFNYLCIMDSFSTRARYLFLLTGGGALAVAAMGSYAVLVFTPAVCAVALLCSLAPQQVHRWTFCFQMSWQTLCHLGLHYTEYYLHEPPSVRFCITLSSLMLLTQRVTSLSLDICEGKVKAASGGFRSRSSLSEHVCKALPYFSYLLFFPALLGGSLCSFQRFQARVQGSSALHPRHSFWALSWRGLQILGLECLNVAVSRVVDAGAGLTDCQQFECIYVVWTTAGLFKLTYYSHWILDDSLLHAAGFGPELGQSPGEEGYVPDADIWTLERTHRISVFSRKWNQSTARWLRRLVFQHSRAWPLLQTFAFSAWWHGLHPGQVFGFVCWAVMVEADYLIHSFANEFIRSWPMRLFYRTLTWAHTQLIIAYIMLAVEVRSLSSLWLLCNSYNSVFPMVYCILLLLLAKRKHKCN
Experimental: hGOAT was expressed and enriched in insect (Sf9) cell membrane fractions using a previously published procedure.
Peptide substrates were labeled with acrylodan on a cysteine thiol and HPLC purified as previously reported.
hGOAT activity assays were performed using a modification of previously reported protocols. For each assay, membrane fraction from Sf9 cells expressing hGOAT was thawed on ice and passed through an 18-gauge needle 10 times to homogenize. Assays were performed with ˜100 μg of membrane protein, as determined by Bradford assay. Membrane fraction was preincubated with 1 μM methoxy arachadonyl fluorophosphonate (MAFP) and inhibitor or vehicle as indicated in 50 mM HEPES pH 7.0 for 30 minutes at room temperature. Reactions were initiated with the addition of 500 µM octanoyl CoA and 1.5 μM fluorescently-labeled ghrelin mimetic, GSSFLCAcrylodan, for a total volume of 50 μL, and were incubated for 3 hours at room temperature in the dark. Reactions were stopped with the addition of 50 μL of 20% acetic acid in isopropanol, and solutions were clarified by protein precipitation with 16.7 μL of 20% trichloroacetic acid, followed by centrifugation (1,000×g, 1 minute). The supernatant was then analyzed by reverse phase HPLC, as previously described. Data reported are the average of three independent determinations, with error bars representing one standard deviation.
For inhibition experiments, reactions were performed and analyzed as described in the presence of either inhibitor or vehicle (DMSO or ethanol) as appropriate. The percent activity at each inhibitor concentration calculated from HPLC data using equations 1 and 2: […]
To determine the IC50 value, the plot of % activity versus [inhibitor] was fit to equation 3, with % activity0 denoting hGOAT activity in the presence of the vehicle alone: […]

hGOAT [2] = molecular target: T1, hGOAT; assay: Inhibitor reversibility assay (10-fold dilution after pretreatment at 3x IC50); format: biochemical; details: pretreatment at 3x IC50, then 10-fold dilution
Experimental: The reversibility of hGOAT inhibition by the α-cyanoenone compounds 3 and 9 was determined by enzyme pretreatment with each inhibitor at three times the measured IC50 concentration, followed by a 10-fold dilution into either reaction buffer or buffer containing the same inhibitor concentration as the pretreatment.
Undiluted homogenized membrane protein fraction containing hGOAT (protein concentration ˜7 μg/μL) was incubated with 10 μM MAFP and 3×IC50 of inhibitor or equal volume vehicle (DMSO or ethanol) for 30 minutes at room temperature. […] Reactions were incubated for 3 hours at room temperature in the dark and then analyzed as described above.

[3] = unit inferred, read-out: IC50, inhibition of hGOAT
[4] = read-out: IC50, inhibition of hGOAT activity
[5] = hGOAT activity, averaged, read-out: IC50 (averaged)
[6] = hGOAT activity, individual trials, read-out: IC50 (individual trials)

O=C1CCCC=C1Br [Compound 17, 2-bromocyclohex-2-enone]
IC50 (hGOAT [1]; [3]): 500 ± 100 µM

C[C@H]1[C@H](C)CC[C@]2(C(=O)O)CC[C@]3(C)C(=CC[C@@H]4[C@@]5(C)CC[C@H](O)C(C)(C)[C@@H]5CC[C@]43C)[C@H]12 [ursolic acid, reference compound]
inhibition of hGOAT activity (in words) (hGOAT [1]; at concentrations up to 100 μM): negligible inhibition

CC1(C)CC[C@]2(C(=O)O)CC[C@]3(C)C(=CC[C@@H]4[C@@]5(C)CC[C@H](O)C(C)(C)[C@@H]5CC[C@]43C)[C@@H]2C1 [oleanic acid, reference compound]
inhibition of hGOAT activity (in words) (hGOAT [1]; at concentrations up to 100 μM): negligible inhibition

CC(C)CCC[C@@H](C)[C@H]1CC[C@H]2[C@@H]3CCC4=CC(=O)CC[C@]4(C)[C@H]3CC[C@]12C [Compound 14, (8S,9S,10R,13R,14S,17R)-10,13-dimethyl-17-((R)-6-methylheptan-2-yl)-6,7,8,9,10,11,12,13,14,15,16,17-dodecahydro-1H-cyclopenta[a]phenanthren-3(2H)-one]
inhibition of hGOAT octanoylation activity (in words) (hGOAT [1]): abrogates inhibition of hGOAT

O=C1C=CCCC1 [Compound 18, cyclohexenone, reference compound]
inhibition of hGOAT activity (in words) (hGOAT [1]; at concentrations up to 1 mM): does not inhibit hGOAT activity

CC1(C)CC[C@]2(C(=O)n3ccnc3)CC[C@]3(C)[C@H](C(=O)C=C4[C@@]5(C)C=C(C#N)C(=O)C(C)(C)[C@@H]5CC[C@]43C)[C@@H]2C1 [CDDO-Im, 1[2-cyano-3,12-dioxooleana-1,9-dien-28-oyl]imidazole, reference compound]
IC50 (hGOAT [1]; [4]): 38 ± 6 µM

C[C@@]12CCC[C@H]1[C@@H]1CC[C@H]3CC(=O)C=C[C@]3(C)[C@H]1CC2 [Compound 11, (2R,5S,8S,9S,10S,13S,14S)-10,13-dimethyl-4,5,6,7,8,9,10,11,12,13,14,15,16,17-tetradecahydro-3H-cyclopenta[a]phenanthren-3-one]
IC50 (hGOAT [1]; [5]): 166 ± 58 µM | IC50 (hGOAT [1]; [6]): 201 ± 107 µM | IC50 (hGOAT [1]; [3]): 170 ± 60 µM

CCN1C(=O)C=CC1=O [NEM, N-ethylmaleimide]
inhibition of hGOAT octanoylation activity (in words) (hGOAT [1]): efficiently inhibits hGOAT | reversibility of hGOAT inhibition (hGOAT [2]): classical irreversible hGOAT inhibition

C[C@@]12CCC[C@H]1[C@@H]1CC[C@H]3CC(=O)C(C#N)=C[C@]3(C)[C@H]1CC2 [Compound 9, (5S,8S,9S,10S,13S,14S)-10,13-dimethyl-3-oxo-4,5,6,7,8,9,10,11,12,13,14,15,16,17-tetradecahydro-3H-cyclopenta[a]phenanthrene-2-carbonitrile]
IC50 (hGOAT [1]; [6]): 7 ± 3 µM | IC50 (hGOAT [1]; [4]): 8 ± 2 µM | enhancement of inhibitor potency against hGOAT by the steroid scaffold (hGOAT [1]; α-cyanoenone 9 versus 16): ~150 fold | reversibility of hGOAT inhibition (hGOAT [2]): reversible hGOAT inhibition

C[C@@]12CCC[C@H]1[C@@H]1CC[C@H]3CC(=O)CC[C@]3(C)[C@H]1CC2 [Compound 12, (5S,8S,9S,10S,13S,14S)-10,13-dimethyltetradecahydro-1H-cyclopenta[a]phenanthren-3(2H)-one]
inhibition of hGOAT octanoylation activity (in words) (hGOAT [1]): loss of inhibition

N#CC1=CCCCC1=O [Compound 16, 6-oxocyclohex-1-enecarbonitrile]
IC50 (hGOAT [1]; read-out: IC50, inhibition of hGOAT): 1200 ± 200 µM

CC1(C)CC[C@]2(C(=O)O)CC[C@]3(C)[C@H](C(=O)C=C4[C@@]5(C)C=C(C#N)C(=O)C(C)(C)[C@@H]5CC[C@]43C)[C@@H]2C1 [Compound 5, reference compound]
inhibition of hGOAT octanoylation activity (in words) (hGOAT [1]): lack of inhibition activity

COC(=O)[C@]12CCC(C)(C)C[C@H]1[C@H]1C(=O)C=C3[C@@]4(C)C=C(C#N)C(=O)C(C)(C)[C@@H]4CC[C@@]3(C)[C@]1(C)CC2 [CDDO-Me, methyl 2-cyano-3,12-dioxooleana-1,9(11)dien-28-oate, reference compound]
inhibition of hGOAT octanoylation activity (in words) (hGOAT [1]): exhibits inhibitory activity against hGOAT

CCNC(=O)[C@]12CCC(C)(C)C[C@H]1[C@H]1C(=O)C=C3[C@@]4(C)C=C(C#N)C(=O)C(C)(C)[C@@H]4CC[C@@]3(C)[C@]1(C)CC2 [CDDO-EA]
IC50 (hGOAT [1]; [4]): 8 ± 4 µM | reversibility of hGOAT inhibition (hGOAT [2]): reversible hGOAT inhibition

C[C@@]12CCC[C@H]1[C@@H]1CC[C@H]3CC(=O)C(Br)=C[C@]3(C)[C@H]1CC2 [Compound 10, (5 S,8S,9S,10S,13S,14S)-10,13-dimethyl-3-oxo-4,5,6,7,8,9,10,11,12,13,14,15,16,17-tetradecahydro-3H-cyclopenta[a]phenanthrene-2-bromide]
IC50 (hGOAT [1]; [5]): 83 ± 29 µM | IC50 (hGOAT [1]; [6]): 84 ± 35 µM | melting point: 111 to 116 °C

CC1(C)CC[C@]2(C)CC=C3[C@]4(C)CC[C@H]5C(C)(C)[C@@H](O)CC[C@]5(C)[C@H]4CC[C@@]3(C)[C@@H]2C1 [Taraxerol, taraxerol, reference compound]
inhibition of hGOAT acylation activity (in words) (hGOAT [1]; at concentrations up to 100 (unit not given)): fails to inhibit

C[C@@]12CCC[C@H]1[C@@H]1CC[C@H]3CC(=O)[C@H](Br)C[C@]3(C)[C@H]1CC2 [Compound 13, (2R,5S,8S,9S,10S,13S,14S)-2-bromo-10,13-dimethyltetradecahydro-1H-cyclopenta[a]phenanthren-3(2H)-one]
inhibition of hGOAT octanoylation activity (in words) (hGOAT [1]): unable to support inhibition
